Earlier results as cited in patent US20210339043A1, “NEURAL STIMULATION VIA VISUAL STIMULATION” (Cognito Therapeutics, Inc., priority 2016, published 2021).

Settings: 70 kg adult; for estimated absorbed radiation dose, Adrenals: organ: Adrenals; for estimated absorbed radiation dose, Brain: organ: Brain; for estimated absorbed radiation dose, Breasts: organ: Breasts; for estimated absorbed radiation dose, Heart Wall: organ: Heart Wall; for estimated absorbed radiation dose, Kidneys: organ: Kidneys; for estimated absorbed radiation dose, Lungs: organ: Lungs; for estimated absorbed radiation dose, Muscle: organ: Muscle; for estimated absorbed radiation dose, Ovaries: organ: Ovaries; for estimated absorbed radiation dose, Pancreas: organ: Pancreas; for estimated absorbed radiation dose, Red marrow: organ: Red marrow; for estimated absorbed radiation dose, Skin: organ: Skin; for estimated absorbed radiation dose, Spleen: organ: Spleen; for estimated absorbed radiation dose, Testes: organ: Testes; for estimated absorbed radiation dose, Thymus: organ: Thymus; for estimated absorbed radiation dose, Thyroid: organ: Thyroid; for estimated absorbed radiation dose, Urinary bladder wall: organ: Urinary bladder wall; for estimated absorbed radiation dose, Uterus: organ: Uterus

Structure (SMILES)	estimated absorbed radiation dose, Adrenals	estimated absorbed radiation dose, Brain	estimated absorbed radiation dose, Breasts	estimated absorbed radiation dose, Heart Wall	estimated absorbed radiation dose, Kidneys	estimated absorbed radiation dose, Lungs	estimated absorbed radiation dose, Muscle	estimated absorbed radiation dose, Ovaries	estimated absorbed radiation dose, Pancreas	estimated absorbed radiation dose, Red marrow	estimated absorbed radiation dose, Skin	estimated absorbed radiation dose, Spleen	estimated absorbed radiation dose, Testes	estimated absorbed radiation dose, Thymus	estimated absorbed radiation dose, Thyroid	estimated absorbed radiation dose, Urinary bladder wall	estimated absorbed radiation dose, Uterus	other results
CNc1ccc(/C=C/c2ccc(OCCOCCOCC[18F])nc2)cc1 [18F-AV-45]	0.05 rad/mCi	0.037 rad/mCi	0.023 rad/mCi	0.048 rad/mCi	0.048 rad/mCi	0.032 rad/mCi	0.032 rad/mCi	0.065 rad/mCi	0.053 rad/mCi	0.053 rad/mCi	0.022 rad/mCi	0.033 rad/mCi	0.025 rad/mCi	0.027 rad/mCi	0.025 rad/mCi	0.1 rad/mCi	0.058 rad/mCi	
OC[C@H]1O[C@@H](O)[C@H]([18F])[C@@H](O)[C@@H]1O [FDG]	0.048 rad/mCi	0.07 rad/mCi	0.034 rad/mCi	0.22 rad/mCi	0.074 rad/mCi	0.064 rad/mCi	0.039 rad/mCi	0.053 rad/mCi	0.096 rad/mCi	0.047 rad/mCi	0.03 rad/mCi	0.14 rad/mCi	0.041 rad/mCi	0.044 rad/mCi	0.039 rad/mCi	0.32 rad/mCi	0.062 rad/mCi	critical organ (radiation dose): urinary bladder wall, followed by heart, spleen and pancreas; estimated absorbed radiation dose, Gallbladder Wall (organ: Gallbladder Wall): 0.049 rad/mCi; estimated absorbed radiation dose, Liver (organ: Liver): 0.058 rad/mCi; estimated absorbed radiation dose, Lower Large Intestine Wall (organ: Lower Large Intestine Wall): 0.051 rad/mCi; estimated absorbed radiation dose, Small Intestine (organ: Small Intestine): 0.047 rad/mCi; estimated absorbed radiation dose, Upper Large Intestine Wall (organ: Upper Large Intestine Wall): 0.046 rad/mCi
